As usually defined, the Km is the concentration of substrate that gives half-maximal velocity.

This assay concerns the target mutant sarcosine oxidase from E. coli JM109 (pSO12 EH), FERM BP-6597; mutant of Bacillus sp. NS-129 sarcosine oxidase (wild type SEQ ID NO: 1) (Bacillus sp. NS-129, UniProt P23342). The assay is described as follows: Km determination by sarcosine oxidase enzyme assay (formaldehyde/acetyl-acetone colour), Lineweaver-Burk plot. It counts as biochemical. The note with it: read-out: Km value (for sarcosine), phosphate buffer pH7.7, 37° C., 10 minutes. The protocol: 0.25M phosphate buffer (0.1 ml, pH7.7), 0.2 M sarcosine solution (0.3 ml) and the enzyme solution with an appropriate concentration (0.1 ml) were mixed and reacted at 37° C. for 10 minutes. Then, 1.0 N acetic acid solution (0.5 ml) was added to the mixture to stop the reaction. To the mixture was added 3 ml of acetyl-acetone color-developing solution (acetyl-acetone, 0.2%(v/v) and diammonium hydrogenphosphate, 10%(w/v) ) (pH6.5) to develop the color at 37° C. for 40 minutes. The absorbance was determined at 410 nm by spectrophotometer. Then, the yield of the enzyme was estimated from the calibration curve of formaldehyde prepared beforehand. The amount of the enzyme which produces 1 μmole of formaldehyde per minute at 37° C. was defined as 1 unit.
The Km value of the enzyme was determined using the assay as described above.

Regarding `CNCC(=O)O` [sarcosine], the Km was ~3.5 mM.

The record behind these values is patent US6228626A, “Sarcosine oxidase and process for producing the same” (priority 1998, dated 2001).
